pIC50: −log10 of the molar value.
Tested on: 299254-011-R-J1-PDC complex spheroid viability
Experiment: Anticancer human tumor 299254-011-R-J1-PDC patient-derived melanoma cell line growth inhibition [POLQ]
Settings: for pIC50: curve of first compound; for viability, T/C: stronger effect = lower value
How it was run: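 PDC + HUVEC + MSC complex spheroids; POLQ inhibitors ± partner drugs; top conc. at/near clinical Cmax, else 10 microM (SN-38 1 microM), half-log dilutions; 37 degrees C, 5% CO2.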

[1] = second compound 0.0316 µM, first compound 0.0316 µM
[2] = second compound 0.0316 µM, first compound 0.1 µM
[3] = second compound 0.0316 µM, first compound 0.316 µM
[4] = second compound 0.0316 µM, first compound 1 µM
[5] = second compound 0.0316 µM, first compound 3.16 µM
[6] = second compound 0.0316 µM, first compound 10 µM
[7] = second compound 0.1 µM, first compound 0.0316 µM
[8] = second compound 0.1 µM, first compound 0.1 µM
[9] = second compound 0.1 µM, first compound 0.316 µM
[10] = second compound 0.1 µM, first compound 1 µM
[11] = second compound 0.1 µM, first compound 3.16 µM
[12] = second compound 0.1 µM, first compound 10 µM
[13] = second compound 0.316 µM, first compound 0.0316 µM
[14] = second compound 0.316 µM, first compound 0.1 µM
[15] = second compound 0.316 µM, first compound 0.316 µM
[16] = second compound 0.316 µM, first compound 1 µM
[17] = second compound 0.316 µM, first compound 3.16 µM
[18] = second compound 0.316 µM, first compound 10 µM
[19] = second compound 1 µM, first compound 0.0316 µM
[20] = second compound 1 µM, first compound 0.1 µM
[21] = second compound 1 µM, first compound 0.316 µM
[22] = second compound 1 µM, first compound 1 µM
[23] = second compound 1 µM, first compound 3.16 µM
[24] = second compound 1 µM, first compound 10 µM
[25] = second compound 3.16 µM, first compound 0.0316 µM
[26] = second compound 3.16 µM, first compound 0.1 µM
[27] = second compound 3.16 µM, first compound 0.316 µM
[28] = second compound 3.16 µM, first compound 1 µM
[29] = second compound 3.16 µM, first compound 3.16 µM
[30] = second compound 3.16 µM, first compound 10 µM
[31] = second compound 10 µM, first compound 0.0316 µM
[32] = second compound 10 µM, first compound 0.1 µM
[33] = second compound 10 µM, first compound 0.316 µM
[34] = second compound 10 µM, first compound 1 µM
[35] = second compound 10 µM, first compound 3.16 µM
[36] = second compound 10 µM, first compound 10 µM
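Further: spheroids exposed to drugs for one week before measurement.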
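Wherever viability, T/C is given: percent viability relative to DMSO vehicle control taken as 100%.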

What does the source list for `CC1COCCN1c1cc(C2(O)CC3CCC(C2)O3)c2cnn(-c3ccn[nH]3)c2n1` (stereo unspecified) + Cc1cccc(N(C)C(=O)C2C(O)CCN2c2nc(C)cc(C(F)(F)F)c2C#N)c1?
pIC50 (second compound 0.0316 µM): 6.74; pIC50 (second compound 0.1 µM): 6.65; pIC50 (second compound 0.316 µM): 6.63; pIC50 (second compound 1 µM): 6.82; pIC50 (second compound 3.16 µM): 6.77; pIC50 (second compound 10 µM): 7.09; viability, T/C [1]: 76.1%; viability, T/C [2]: 65.7%; viability, T/C [3]: 35.2%; viability, T/C [4]: 21.1%; viability, T/C [5]: 17.5%; viability, T/C [6]: 10.6%; viability, T/C [7]: 93.9%; viability, T/C [8]: 69.5%; viability, T/C [9]: 39.1%; viability, T/C [10]: 27.4%; viability, T/C [11]: 17.4%; viability, T/C [12]: 9.48%; viability, T/C [13]: 81.4%; viability, T/C [14]: 64.7%; viability, T/C [15]: 46.5%; viability, T/C [16]: 22.8%; viability, T/C [17]: 18.6%; viability, T/C [18]: 7.95%; viability, T/C [19]: 99.5%; viability, T/C [20]: 56.8%; viability, T/C [21]: 36%; viability, T/C [22]: 24.1%; viability, T/C [23]: 15.5%; viability, T/C [24]: 10.2%; viability, T/C [25]: 97.1%; viability, T/C [26]: 61.8%; viability, T/C [27]: 35.5%; viability, T/C [28]: 22.1%; viability, T/C [29]: 14.2%; viability, T/C [30]: 10.6%; viability, T/C [31]: 73.5%; viability, T/C [32]: 44.5%; viability, T/C [33]: 27.2%; viability, T/C [34]: 20.2%; viability, T/C [35]: 14.2%; viability, T/C [36]: 9.04%

How did the pIC50 (second compound 0.0316 µM) turn out when `CCc1cc2c(N3CCc4c(cc(Cn5ccnc5)cc4-c4cn(C)nc4C(F)(F)F)C3=O)ccnc2c(OC)n1` + Cc1cccc(N(C)C(=O)C2C(O)CCN2c2nc(C)cc(C(F)(F)F)c2C#N)c1 was run?
Its pIC50 is less than 5.00.

And the pIC50 (second compound 0.1 µM)?
Its pIC50 is less than 5.00.

What about the pIC50 (second compound 0.316 µM) of the same compound?
The pIC50 was less than 5.00.

What about the pIC50 (second compound 1 µM) of the same compound?
Its pIC50 is less than 5.00.

And the pIC50 (second compound 3.16 µM)?
Its pIC50 is less than 5.00.

And the pIC50 (second compound 10 µM)?
The pIC50 was less than 5.00.

What about the viability, T/C [1] of the same compound?
Its viability, T/C is 97.6%.

And the viability, T/C [2]?
Its viability, T/C is 119%.

And the viability, T/C [3]?
The viability, T/C was 98.9%.

And the viability, T/C [4]?
Its viability, T/C is 106%.

And the viability, T/C [5]?
The viability, T/C was 109%.

And the viability, T/C [6]?
The viability, T/C was 80.4%.

And the viability, T/C [7]?
Its viability, T/C is 98.7%.

And the viability, T/C [8]?
The viability, T/C was 102%.

What about the viability, T/C [9] of the same compound?
Its viability, T/C is 99.7%.

What about the viability, T/C [10] of the same compound?
Its viability, T/C is 99.4%.

And the viability, T/C [11]?
The viability, T/C was 99.1%.

And the viability, T/C [12]?
The viability, T/C was 86.1%.

And the viability, T/C [13]?
The viability, T/C was 98.5%.

And the viability, T/C [14]?
The viability, T/C was 91.2%.

And the viability, T/C [15]?
Its viability, T/C is 116%.

And the viability, T/C [16]?
Its viability, T/C is 112%.

What about the viability, T/C [17] of the same compound?
The viability, T/C was 84.2%.

And the viability, T/C [18]?
Its viability, T/C is 72.8%.

What about the viability, T/C [19] of the same compound?
The viability, T/C was 110%.

And the viability, T/C [20]?
The viability, T/C was 96.9%.

And the viability, T/C [21]?
The viability, T/C was 113%.

What about the viability, T/C [22] of the same compound?
Its viability, T/C is 107%.

And the viability, T/C [23]?
The viability, T/C was 91%.

And the viability, T/C [24]?
Its viability, T/C is 86%.

What about the viability, T/C [25] of the same compound?
Its viability, T/C is 106%.

What about the viability, T/C [26] of the same compound?
The viability, T/C was 96.9%.

And the viability, T/C [27]?
Its viability, T/C is 101%.

What about the viability, T/C [28] of the same compound?
Its viability, T/C is 105%.

What about the viability, T/C [29] of the same compound?
The viability, T/C was 95.5%.

What about the viability, T/C [30] of the same compound?
Its viability, T/C is 76.4%.

What about the viability, T/C [31] of the same compound?
The viability, T/C was 94%.

What about the viability, T/C [32] of the same compound?
Its viability, T/C is 112%.

And the viability, T/C [33]?
Its viability, T/C is 105%.

What about the viability, T/C [34] of the same compound?
Its viability, T/C is 82.1%.

And the viability, T/C [35]?
The viability, T/C was 75.7%.

And the viability, T/C [36]?
The viability, T/C was 79%.

`COc1cc2cc(C(=O)CCC(=O)O)sc2cc1OC` + Cc1cccc(N(C)C(=O)C2C(O)CCN2c2nc(C)cc(C(F)(F)F)c2C#N)c1 was tested. Which pIC50 (second compound 0.0316 µM) did it give?
The pIC50 was less than 5.00.

What about the pIC50 (second compound 0.1 µM) of the same compound?
Its pIC50 is less than 5.00.

What about the pIC50 (second compound 0.316 µM) of the same compound?
The pIC50 was less than 5.00.

And the pIC50 (second compound 1 µM)?
Its pIC50 is less than 5.00.

What about the pIC50 (second compound 3.16 µM) of the same compound?
Its pIC50 is less than 5.00.

What about the pIC50 (second compound 10 µM) of the same compound?
The pIC50 was less than 5.00.

And the viability, T/C [1]?
Its viability, T/C is 105%.

What about the viability, T/C [2] of the same compound?
The viability, T/C was 102%.

What about the viability, T/C [3] of the same compound?
Its viability, T/C is 96.3%.

What about the viability, T/C [4] of the same compound?
Its viability, T/C is 113%.

What about the viability, T/C [5] of the same compound?
The viability, T/C was 111%.

What about the viability, T/C [6] of the same compound?
Its viability, T/C is 109%.

What about the viability, T/C [7] of the same compound?
Its viability, T/C is 98.6%.

What about the viability, T/C [8] of the same compound?
The viability, T/C was 96%.

And the viability, T/C [9]?
The viability, T/C was 104%.

What about the viability, T/C [10] of the same compound?
Its viability, T/C is 101%.

And the viability, T/C [11]?
The viability, T/C was 106%.

What about the viability, T/C [12] of the same compound?
Its viability, T/C is 101%.

And the viability, T/C [13]?
The viability, T/C was 102%.

And the viability, T/C [14]?
Its viability, T/C is 115%.

What about the viability, T/C [15] of the same compound?
Its viability, T/C is 99.9%.

What about the viability, T/C [16] of the same compound?
Its viability, T/C is 110%.

What about the viability, T/C [17] of the same compound?
The viability, T/C was 113%.

What about the viability, T/C [18] of the same compound?
Its viability, T/C is 104%.

What about the viability, T/C [19] of the same compound?
Its viability, T/C is 105%.

And the viability, T/C [20]?
The viability, T/C was 109%.

And the viability, T/C [21]?
Its viability, T/C is 105%.

And the viability, T/C [22]?
The viability, T/C was 112%.

What about the viability, T/C [23] of the same compound?
The viability, T/C was 110%.

And the viability, T/C [24]?
The viability, T/C was 103%.

And the viability, T/C [25]?
Its viability, T/C is 105%.

What about the viability, T/C [26] of the same compound?
Its viability, T/C is 116%.

What about the viability, T/C [27] of the same compound?
Its viability, T/C is 109%.

What about the viability, T/C [28] of the same compound?
The viability, T/C was 95%.

What about the viability, T/C [29] of the same compound?
The viability, T/C was 96.1%.

What about the viability, T/C [30] of the same compound?
Its viability, T/C is 97.4%.

What about the viability, T/C [31] of the same compound?
The viability, T/C was 102%.

What about the viability, T/C [32] of the same compound?
The viability, T/C was 95.5%.

What about the viability, T/C [33] of the same compound?
The viability, T/C was 103%.

And the viability, T/C [34]?
Its viability, T/C is 102%.

What about the viability, T/C [35] of the same compound?
The viability, T/C was 102%.

What about the viability, T/C [36] of the same compound?
Its viability, T/C is 101%.

— PubChem BioAssay AID1963849 (Molecular Pharmacology Branch, DTP, NCI, 2024)
